Data published in PMC7734590, “Identification of a Selective RelA Inhibitor Based on DSE-FRET Screening Methods” (International Journal of Molecular Sciences, 2020).
Where “and” joins values, the source holds several entries; their conditions need not be identical. Equal values may be shown once. Where a name gives a salt, the structure may show the parent alone. Read-outs that look alike come from different tables or passages of the source. Values belong to the molecule of their own block, whether it stands above or below them.

Experiments:
[1] = molecular target: RelA (Homo sapiens, UniProt Q04206); assay: DSE-FRET RelA–DNA binding inhibition; type: biochemical; set-up: Kinetic assay RelA Inhibition % ΔRFU(60 min-0 min) / RelA HTS % Inhibition / RelA Retest % Inhibition Run1 / RelA Retest % Inhibition Run2 / RelA Retest % Inhibition Avg. / Kinetic assay RelA % Inhibition ΔRFU(60 min-0 min): dose or concentration left out as unconfirmed; conditions: for Hit Judgement of: RelA: 1 = judged hit after retest
Chain of RelA (Q04206 19-306 limits assumed): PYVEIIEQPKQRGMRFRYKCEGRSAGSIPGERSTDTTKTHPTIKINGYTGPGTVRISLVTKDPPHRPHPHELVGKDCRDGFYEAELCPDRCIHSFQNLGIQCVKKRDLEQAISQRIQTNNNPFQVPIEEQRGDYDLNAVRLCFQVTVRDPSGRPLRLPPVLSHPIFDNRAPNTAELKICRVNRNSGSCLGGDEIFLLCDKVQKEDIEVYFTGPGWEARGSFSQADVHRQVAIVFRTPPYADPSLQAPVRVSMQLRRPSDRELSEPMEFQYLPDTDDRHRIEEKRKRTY

[2] = molecular target: T1, p52 (Homo sapiens, UniProt Q00653); assay: DSE-FRET p52–DNA binding inhibition; type: biochemical; set-up: p52 Retest % Inhibition Run2 / p52 Retest % Inhibition Avg. / Kinetic assay p52 Inhibition % ΔRFU(60 min-0 min) / p52 HTS % Inhibition / p52 Retest % Inhibition Run1: dose or concentration left out as unconfirmed; conditions: for Hit Judgement of: p52: 1 = judged hit after retest
T1 sequence (Q00653 1-454 limits assumed): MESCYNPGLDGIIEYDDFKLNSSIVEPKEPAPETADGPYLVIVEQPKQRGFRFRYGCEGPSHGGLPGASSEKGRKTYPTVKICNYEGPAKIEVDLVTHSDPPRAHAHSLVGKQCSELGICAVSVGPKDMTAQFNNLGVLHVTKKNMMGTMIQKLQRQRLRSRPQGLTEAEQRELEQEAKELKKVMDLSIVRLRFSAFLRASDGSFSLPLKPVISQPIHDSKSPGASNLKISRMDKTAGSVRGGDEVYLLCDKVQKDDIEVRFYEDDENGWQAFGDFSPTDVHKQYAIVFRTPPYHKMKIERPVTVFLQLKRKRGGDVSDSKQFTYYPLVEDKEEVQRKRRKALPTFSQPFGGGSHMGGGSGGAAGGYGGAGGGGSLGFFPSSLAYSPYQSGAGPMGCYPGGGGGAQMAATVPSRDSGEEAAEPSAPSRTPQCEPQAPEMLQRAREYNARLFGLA

[3] = HTS, 5 µg/mL, NPDepo hits, read-out: RelA HTS % Inhibition @ 5 µg/mL
[4] = Retest Run1, 5 µg/mL, read-out: RelA Retest % Inhibition @ 5 µg/mL Run1
[5] = Retest Run2, 5 µg/mL, read-out: RelA Retest % Inhibition @ 5 µg/mL Run2
[6] = Retest average of Run1 and Run2, 5 µg/mL, read-out: RelA Retest % Inhibition @ 5 µg/mL Avg.
[7] = kinetic assay, 5 µg/mL, ΔRFU 60 min-0 min, read-out: Kinetic assay @ 5 µg/mL RelA Inhibition % ΔRFU(60 min-0 min)
[8] = HTS, 5 µg/mL, NPDepo hits, read-out: p52 HTS % Inhibition @ 5 µg/mL
[9] = Retest Run1, 5 µg/mL, read-out: p52 Retest % Inhibition @ 5 µg/mL Run1
[10] = Retest Run2, 5 µg/mL, read-out: p52 Retest % Inhibition @ 5 µg/mL Run2
[11] = Retest average of Run1 and Run2, 5 µg/mL, read-out: p52 Retest % Inhibition @ 5 µg/mL Avg.
[12] = kinetic assay, 5 µg/mL, ΔRFU 60 min-0 min, read-out: Kinetic assay @ 5 µg/mL p52 Inhibition % ΔRFU(60 min-0 min)
[13] = Retest average of Run1 and Run2
[14] = kinetic assay, ΔRFU 60 min-0 min

Molecule: OCCN(CCO)c1nc(N2CCCCC2)c2nc(N(CCO)CCO)nc(N3CCCCC3)c2n1 [Dipyridamole]
- Kinetic assay RelA % Inhibition ΔRFU(60 min-0 min) ([1]; kinetic assay, 60 min-0 min): -4.24% and -5.31%
- Kinetic assay p52 % Inhibition ΔRFU(60 min-0 min) ([2]; kinetic assay, 60 min-0 min): -0.806% and -5%

Molecule: O=C(O)CSCC(=O)N1CCn2c3c(c4cc(C5CCCCC5)ccc42)CCCC31 (centres unmarked)
- RelA HTS % Inhibition ([1]; HTS, NPDepo hits): 35.7%
- RelA Retest % Inhibition Run1 ([1]; Retest Run1): 22.2%
- RelA Retest % Inhibition Run2 ([1]; Retest Run2): 23.7%
- RelA Retest % Inhibition Avg. [1, 13]: 22.9%
- Kinetic assay RelA Inhibition % ΔRFU(60 min-0 min) [1, 14]: -2.34%
- p52 HTS % Inhibition ([2]; HTS, NPDepo hits): 19.2%
- p52 Retest % Inhibition Run1 ([2]; Retest Run1): 18.8%
- p52 Retest % Inhibition Run2 ([2]; Retest Run2): 22.6%
- p52 Retest % Inhibition Avg. [2, 13]: 20.7%
- Kinetic assay p52 Inhibition % ΔRFU(60 min-0 min) [2, 14]: -3.52%

Molecule: SN 38
- Kinetic assay RelA % Inhibition ΔRFU(60 min-0 min) ([1]; kinetic assay, 60 min-0 min): -0.814%
- Kinetic assay p52 % Inhibition ΔRFU(60 min-0 min) ([2]; kinetic assay, 60 min-0 min): -2%

Molecule: O=C1C=CC(=C(c2ccc(O)c(O)c2)c2ccccc2S(=O)(=O)O)C=C1O (mixture of isomers) [Pyrocatechol violet]
- Hit Judgement of: RelA [1]: 1
- inhibition at 5 µg/mL [1, 3]: 52.5%
- inhibition at 5 µg/mL [1, 4]: 43.2%
- inhibition at 5 µg/mL [1, 5]: 47.5%
- inhibition at 5 µg/mL [1, 6]: 45.3%
- inhibition at 5 µg/mL [1, 7]: 15%
- Hit Judgement of: p52 [2]: 1
- inhibition at 5 µg/mL [2, 8]: 4.4%
- inhibition at 5 µg/mL [2, 9]: 14.9%
- inhibition at 5 µg/mL [2, 10]: 16.2%
- inhibition at 5 µg/mL [2, 11]: 15.6%
- inhibition at 5 µg/mL [2, 12]: 6%

Molecule: COc1cccc2c1C(=O)c1c(O)c3c(c(O)c1C2=O)C[C@@](O)(C(=O)CO)C[C@@H]3O[C@H]1C[C@H](N)[C@H](O)[C@H](C)O1 [Doxorubicin hydrochloride]
- Kinetic assay RelA % Inhibition ΔRFU(60 min-0 min) ([1]; kinetic assay, 60 min-0 min): -15%
- Kinetic assay p52 % Inhibition ΔRFU(60 min-0 min) ([2]; kinetic assay, 60 min-0 min): -15% and -17%

Molecule: OCCN(CCO)c1nc(N2CCCCC2)c2nc(N(CCO)CCO)nc(N3CCCCC3)c2n1 [DIPYRIDAMOLE]
- Kinetic assay RelA % Inhibition ΔRFU(60 min-0 min) ([1]; kinetic assay, 60 min-0 min): -1.49%
- Kinetic assay p52 % Inhibition ΔRFU(60 min-0 min) ([2]; kinetic assay, 60 min-0 min): -1.17%

Molecule: O=C1NC(=O)c2c1c1c3ccccc3n3c1c1c2c2ccccc2n1C1CCC3O1 [SB 218078]
- Kinetic assay RelA % Inhibition ΔRFU(60 min-0 min) ([1]; kinetic assay, 60 min-0 min): 13%
- Kinetic assay p52 % Inhibition ΔRFU(60 min-0 min) ([2]; kinetic assay, 60 min-0 min): 5%

Next, values leading:

- Hit Judgement of: RelA [1]: 1
- inhibition at 5 µg/mL [1, 3]: 54.8%
- inhibition at 5 µg/mL [1, 4]: 62%
- inhibition at 5 µg/mL [1, 5]: 69%
- inhibition at 5 µg/mL [1, 6]: 65.5%
- inhibition at 5 µg/mL [1, 7]: 26%
- Hit Judgement of: p52 [2]: 1
- inhibition at 5 µg/mL [2, 8]: 2.8%
- inhibition at 5 µg/mL [2, 9]: 15.1%
- inhibition at 5 µg/mL [2, 10]: 16.4%
- inhibition at 5 µg/mL [2, 11]: 15.8%
- inhibition at 5 µg/mL [2, 12]: 7%
Molecule: Cc1cc(-c2ccc(/N=N/c3c(S(=O)(=O)O)cc4cc(S(=O)(=O)O)cc(N)c4c3O)c(C)c2)ccc1/N=N/c1c(S(=O)(=O)O)cc2cc(S(=O)(=O)O)cc(N)c2c1O [Trypan blue]

- Kinetic assay RelA % Inhibition ΔRFU(60 min-0 min) ([1]; kinetic assay, 60 min-0 min): -3.67%
- Kinetic assay p52 % Inhibition ΔRFU(60 min-0 min) ([2]; kinetic assay, 60 min-0 min): -1.43%
Molecule: COc1cc2c(cc1OC)-c1cc3nc4ccccc4nc3n1C(C)(C)C2 [YM 90709]

- inhibition at 10 µM ([1]; HTS, known drugs, 10 µM, read-out: RelA HTS % Inhibition @ 10 µM): 1.1%
- inhibition at 10 µM ([1]; kinetic assay, 60 min-0 min, 10 µM, read-out: Kinetic assay @ 10 µM RelA % Inhibition ΔRFU(60 min-0 min)): -1.11%
- inhibition at 10 µM ([1]; retest, Run1, 10 µM, read-out: RelA Retest % Inhibition @ 10 µM Run1): 0.0644%
- inhibition at 10 µM ([1]; retest, Run2, 10 µM, read-out: RelA Retest % Inhibition @ 10 µM Run2): 0.634%
- inhibition at 10 µM ([1]; retest, average of Run1 and Run2, 10 µM, read-out: RelA Retest % Inhibition @ 10 µM Avg.): 0.349%
- inhibition at 10 µM ([2]; HTS, known drugs, 10 µM, read-out: p52 HTS % Inhibition @ 10 µM): 30.5%
- inhibition at 10 µM ([2]; kinetic assay, 60 min-0 min, 10 µM, read-out: Kinetic assay @ 10 µM p52 % Inhibition ΔRFU(60 min-0 min)): -1%
- inhibition at 10 µM ([2]; retest, Run1, 10 µM, read-out: p52 Retest % Inhibition @ 10 µM Run1): 0.245%
- inhibition at 10 µM ([2]; retest, Run2, 10 µM, read-out: p52 Retest % Inhibition @ 10 µM Run2): 0.9%
- inhibition at 10 µM ([2]; retest, average of Run1 and Run2, 10 µM, read-out: p52 Retest % Inhibition @ 10 µM Avg.): 0.6%
Molecule: O=c1cc[nH]c(=O)[nH]1 [URACIL]
